This note sets out measurements from ChEMBL document CHEMBL1201862, “PubChem BioAssay data set” (2004).

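Each compound was tested at five concentrations against cells in 96-well plates for 48 hours. Abbreviation: GI50, concentration required for 50% inhibition of growth.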 Active and inactive are the calls of the source. No stated cut-off is given here; in the data, active = GI50 up to about 1.1 µM and inactive = higher. Bounds are passed on as bounds.

Holding throughout (assay): DTP human tumour cell line panel, 48 h
In assay [1] the test system is HOP-62.
Assay [2] has as its system RXF 393.
Assay [3] deals with HOP-92.
For assay [4], the system named is TK-10.
Assay [5] concerns SK-MEL-5.
For assay [6], the system named is KM12.
Assay [7] concerns NCI-H522.
Assay [8] deals with NCI-H23.
Assay [9] concerns CCRF-CEM.
The test system of assay [10] is HCC 2998.
For assay [11], the system named is SF-539.
Assay [12] concerns SW-620.
The subject of assay [13] is SK-MEL-2.
In assay [14] the test system is UO-31.
Assay [15] deals with HT-29.
For assay [16], the system named is SK-OV-3.
The subject of assay [17] is DU-145.
Assay [18] concerns NCI/ADR-RES.
Assay [19] has as its system MDA-MB-231.

With `CC(C)(C)CC(C)(C)c1cc2c(O)c(c1)Cc1cc(C(C)(C)CC(C)(C)C)cc(c1O)Cc1cc(C(C)(C)CC(C)(C)C)cc(c1O)Cc1cc(C(C)(C)CC(C)(C)C)cc(c1O)Cc1cc(C(C)(C)CC(C)(C)C)cc(c1O)Cc1cc(C(C)(C)CC(C)(C)C)cc(c1O)Cc1cc(C(C)(C)CC(C)(C)C)cc(c1O)Cc1cc(C(C)(C)CC(C)(C)C)cc(c1O)C2`, the GI50 in assay [1], in assay [2], in assay [3], in assay [4], in [5] and in assay [6] was > 100 µM (inactive) in each case. Moreover, the GI50 in assay [7], in [8], in assay [9], in assay [10], in assay [11] and in assay [12] was > 100 µM (inactive) throughout. Also, the GI50 in [13], in [14] and in [15] was > 100 µM (inactive) each time.

With `CC(C)(C)c1cc2c(OP(c3ccccc3)c3ccccc3)c(c1)Cc1cc(C(C)(C)C)cc(c1OP(c1ccccc1)c1ccccc1)Cc1cc(C(C)(C)C)cc(c1OP(c1ccccc1)c1ccccc1)Cc1cc(C(C)(C)C)cc(c1OP(c1ccccc1)c1ccccc1)C2`, the GI50 in [1] is > 5 µM (inactive); in assay [2], 19.8 µM (inactive); in assay [3], > 5 µM (inactive); in assay [4], > 5 µM (inactive); in [5], > 5 µM (inactive); in [6] it was > 5 µM (inactive). The GI50 in [7], in assay [8], in [9], in [10], in [16] and in assay [11] was > 5 µM (inactive) each time. Also, the GI50 in assay [12], in assay [13], in assay [14] and in [15] was > 5 µM (inactive) in each case.

On to `Cc1nc2c(n1C(C)(C)C)C(=O)c1ccccc1C2=O`, for which the GI50 was > 100 µM (inactive) in [1]; > 100 µM (inactive) in assay [2]; 9.31 µM (inactive) in assay [3]; 82 µM (inactive) in assay [4]; 38.9 µM (inactive) in assay [5]; 74.1 µM (inactive) in assay [6]. The GI50 is 44 µM (inactive) in assay [7]; 37.8 µM (inactive) in assay [8]; 73.8 µM (inactive) in assay [9]; > 100 µM (inactive) in assay [10]; > 100 µM (inactive) in assay [16]; > 100 µM (inactive) in assay [11]. For the same compound, the GI50 in [12] was > 100 µM (inactive); in assay [13], 80.4 µM (inactive); in assay [14], 37.2 µM (inactive); in assay [15], 44.1 µM (inactive).

Take `CC(=O)N(C(C)=O)n1c(-c2ccccc2)n[nH]c1=O`: the GI50 in assay [1], in [2], in [3], in assay [17], in assay [4] and in assay [5] was > 100 µM (inactive) each time. Besides, the GI50 in [6], in [18], in assay [7], in assay [8], in assay [9] and in assay [10] was > 100 µM (inactive) in each case. Moreover, the GI50 in assay [16], in assay [11], in [12], in assay [13], in assay [19] and in assay [14] was > 100 µM (inactive) each time. In assay [15], the GI50 was > 100 µM (inactive).

As for `CN(C)/N=N/c1nc2c(c(=O)n(C)c(=O)n2C)n1CC1CO1` (stereo not drawn), the GI50 in assay [1] was 12.1 µM (inactive); in assay [2] it was 2.88 µM (inactive); in assay [17], 14.4 µM (inactive); in [4], 11.9 µM (inactive); in assay [5], 12.9 µM (inactive); in assay [6], 13.4 µM (inactive). Moreover, the GI50 in assay [18] was 16.6 µM (inactive); in [7], 14.1 µM (inactive); in assay [8], 12.2 µM (inactive); in [9], 23.8 µM (inactive); in assay [10], 12.7 µM (inactive); in [16] it was 17.2 µM (inactive). Also, the GI50 is 7.1 µM (inactive) in [11]; 15 µM (inactive) in [12]; 10.7 µM (inactive) in [13]; 16.9 µM (inactive) in assay [19]; 14.5 µM (inactive) in assay [14]; 13.6 µM (inactive) in [15].

As for `CC1(Sc2ccccc2)CN(Cc2ccccc2)C1=O` (stereo not drawn), the GI50 in [1] is > 100 µM (inactive); in assay [2], > 100 µM (inactive); in assay [3], 20.5 µM (inactive); in assay [4], > 100 µM (inactive); in assay [5], > 100 µM (inactive); in assay [6], > 100 µM (inactive). For the same compound, the GI50 was 60.3 µM (inactive) in [7]; > 100 µM (inactive) in assay [8]; > 100 µM (inactive) in assay [9]; > 100 µM (inactive) in assay [10]; > 100 µM (inactive) in assay [16]; > 100 µM (inactive) in assay [11]. For the same compound, the GI50 in [12] was > 100 µM (inactive); in [13] it was > 100 µM (inactive); in assay [14], 22.8 µM (inactive); in assay [15] it was > 100 µM (inactive).

For `C/C(=C/c1ccccc1)CN(C(=O)/C=C\Sc1ccccc1)C(C)(C)C`, the GI50 in assay [1] was > 100 µM (inactive); in [2], > 100 µM (inactive); in assay [3], 4.85 µM (inactive); in [17], > 100 µM (inactive); in [4], > 100 µM (inactive); in assay [5], 60.8 µM (inactive). In addition, the GI50 was > 100 µM (inactive) in assay [6]; > 34.6 µM (inactive) in assay [18]; 10.1 µM (inactive) in [7]; > 48 µM (inactive) in assay [8]; 63.1 µM (inactive) in assay [9]; 45.4 µM (inactive) in [10]. Besides, the GI50 in [16] is > 100 µM (inactive); in assay [11] it was > 91.2 µM (inactive); in assay [12], > 100 µM (inactive); in assay [13], > 75.9 µM (inactive); in assay [19] it was > 100 µM (inactive); in [14], > 52 µM (inactive). Also, the GI50 in assay [15] is 36.4 µM (inactive).

As for `C[C@@H](O)CCC(=O)c1ccoc1`, the GI50 in assay [1], in [2], in [3], in assay [4], in [5] and in assay [6] was > 100 µM (inactive) in each case. The GI50 in [7], in [8], in assay [9], in assay [10], in assay [16] and in assay [11] was > 100 µM (inactive) in each case. Further, the GI50 in [12], in assay [13], in assay [14] and in assay [15] was > 100 µM (inactive) throughout.

For the compound `COC(=O)n1c(C[P+](c2ccccc2)(c2ccccc2)c2ccccc2)cc2ccccc21`, the GI50 in assay [1] was 1.73 µM (inactive); in [2], 3.43 µM (inactive); in assay [3], 0.0318 µM (active); in assay [4], 3.34 µM (inactive); in assay [5], 0.414 µM (active); in assay [6] it was 1.19 µM (inactive). Besides, the GI50 in [7] is 1 µM (active); in assay [8], 1.86 µM (inactive); in assay [9], 0.931 µM (active); in assay [10], 1.15 µM (inactive); in assay [16], 0.652 µM (active); in assay [11], 3.17 µM (inactive). Also, the GI50 was 1.85 µM (inactive) in assay [12], 0.661 µM (active) in assay [13], 0.604 µM (active) in assay [14] and 1.75 µM (inactive) in [15].

For the compound `COC(=O)C12Oc3ccc(-c4ccc5c(c4O)C(=O)C4=CCC(C)C(O)C4(C(=O)OC)O5)c(O)c3C(=O)C1=CCC(C)C2O` (stereo not drawn), the GI50 is 2.18 µM (inactive) in assay [1]; 1.63 µM (inactive) in assay [2]; 1.26 µM (inactive) in [3]; 2.44 µM (inactive) in assay [4]; 1.63 µM (inactive) in assay [5]; 1.47 µM (inactive) in [6]. Further, the GI50 in assay [7] is 1.01 µM (active); in assay [8] it was 1.37 µM (inactive); in [9], 0.733 µM (active); in assay [10], 1.31 µM (inactive); in assay [16] it was 1.96 µM (inactive); in assay [11], 2.89 µM (inactive). Also, the GI50 in [12] is 0.836 µM (active); in [13] it was 1.41 µM (inactive); in assay [14], 1.46 µM (inactive); in assay [15] it was 1.51 µM (inactive).

As for `O=c1[nH]c(-c2ccc(-c3nc4cc([N+](=O)[O-])ccc4c(=O)[nH]3)cc2)nc2cc([N+](=O)[O-])ccc12`, the GI50 in assay [1], in assay [2], in assay [3], in [4], in [5] and in [6] was > 100 µM (inactive) in each case. Besides, the GI50 in assay [7], in [8], in assay [9], in [10], in assay [16] and in assay [11] was > 100 µM (inactive) each time. For the same compound, the GI50 in assay [12], in [13], in assay [14] and in [15] was > 100 µM (inactive) throughout.
